Experiment: DVS measurement: % reduction in amount of water absorbed by treated hair
Design: % reduction in water absorbed: concentration or dose not given beside the values
Conditions: for % Reduction in amount of water absorbed: material at 1% wt/vol; for % reduction in water absorbed: Molecular Class II
Procedure: The leave-on treatment compositions are prepared by adding the Moisture Control Materials and perfume, if needed, into a 50:50 ethanol/water carrier and stirred until complete dissolution. The solution pH is adjusted using sodium hydroxide (50% w/w) to a final pH of 4.0-4.2.
The hair is allowed to air dry and then analyzed using the DVS method described above. The experiment is repeated for a dosage of 0.50 g of solution per g of hair. The hair in this case is also assessed by expert graders, as described below, in addition to the DVS analysis.
An amount of 25-30 mg of hair with length of approximately 1 cm is weighed and hold for equilibration at 0% RH for 16 hours. After the 16-hour period, the RH is increased to 10% and maintained at this level for 6 hours. Then, the RH is increased by 10% after every 6 hours interval until it reaches 90% RH. The % reduction in amount of water absorbed is calculated as follows:
A=Amount of water absorbed by the hair treated with composition containing the Moisture Control Material
B=Amount of water absorbed by the hair treated with control composition (only carrier) containing no Moisture Control Material % reduction in amount of water absorbed=[(B−A)×100]/B

## Nc1cccc(C(=O)O)c1 [3-Aminobenzoic acid]
  % Reduction in amount of water absorbed: 12%

## CC(C)CCCCCCCCCCCCCCCOC(=O)CCCCCCCCCCCCCCC(C)C [Isostearyl isostearate]
  % reduction in water absorbed: 11%

## O=C(O)c1cccc(O)c1 [3-Hydroxybenzoic Acid]
  % Reduction in amount of water absorbed: 20%

## O=C(O)c1cc(O)c(C(=O)O)cc1O [2,5 Dihydroxyterephthalic acid]
  % Reduction in amount of water absorbed: 18%

## CCCCC/C=C\C/C=C\CCCCCCCC(=O)OCC [Ethyl linoleate]
  % reduction in water absorbed: 8%

## COc1cc(/C=C/C(=O)O)ccc1O [Trans-Ferulic Acid]
  % Reduction in amount of water absorbed: 6%

## O=C(O)c1cc(O)c(O)c(O)c1 [Gallic acid]
  % Reduction in amount of water absorbed: 15%

## CCCCCCCC/C=C\CCCCCCCC(=O)OCC(O)CO (stereo not drawn) [Glyceryl monooleate]
  % reduction in water absorbed: 5%

## CCCCCCCCC(CO)CCCCCC (stereo not drawn) [2-Hexyl-1-decanol]
  % reduction in water absorbed: 11%

## O=C(O)c1ccc(O)cc1O [2,4-Dihydroxybenzoic acid]
  % Reduction in amount of water absorbed: 30%

## C/C(=C\CO)CCC[C@H](C)CCC[C@H](C)CCCC(C)C [Phytol]
  % reduction in water absorbed: 14%

## O=C(O)c1cc(Cl)c(O)c(Cl)c1 [3,5-Dichloro-4-hydroxybenzoic acid]
  % Reduction in amount of water absorbed: 15%

## O=C(O)c1cc(O)ccc1O [2,5-Dihydroxybenzoic acid]
  % Reduction in amount of water absorbed: 27%

## CC(C)C(=O)O [Isobutyric acid]
  % reduction in water absorbed: 5%

## CCCCCCCCCCCCCC(=O)OC(C)C [Isopropyl myristate]
  % reduction in water absorbed: 12%

## Cl.Nc1cccc(O)c1 [3-Hydroxyanilinium chloride]
  % Reduction in amount of water absorbed: 16%

## O=C(O)c1ccc(O)c(Cl)c1 [3-Chloro-4-hydroxybenzoic acid]
  % Reduction in amount of water absorbed: 11%

## O=S(=O)(O)c1ccc(O)cc1 [4-Hydroxybenzenesulphonic acid]
  % Reduction in amount of water absorbed: 26%

## O=C(OCCO)c1ccccc1O [2-Hydroxyethyl salicylate]
  % reduction in water absorbed: 10%

## O=C(O)CNc1ccc(O)cc1 [N-4-Hydroxyphenylglycine]
  % Reduction in amount of water absorbed: 15%

## O=C(O)c1cc(Cl)ccc1O [5-Chlorosalicylic acid]
  % Reduction in amount of water absorbed: 28%

## Nc1ccccc1O [2-Aminophenol]
  % Reduction in amount of water absorbed: 14%

## O=C(O)c1ccc(O)c(O)c1 [3,4-Dihydroxybenzoic acid]
  % Reduction in amount of water absorbed: 20%

## CCOC(=O)c1cc(O)c(O)c(O)c1 [Ethyl gallate]
  % reduction in water absorbed: 17%

## Sorbitan caprylate
  % reduction in water absorbed: 11%

## O=C(O)c1c(O)cccc1O [2,6-Dihydroxybenzoic acid]
  % Reduction in amount of water absorbed: 35%

## O=C(O)/C=C/c1ccc(O)cc1 [p-Coumaric acid]
  % Reduction in amount of water absorbed: 8.8%

## CCCCCCCC/C=C\CCCCCCCC(=O)O [Oleic Acid]
  % reduction in water absorbed: 14%

## Nc1ccc(C(=O)O)cc1 [4-Aminobenzoic acid]
  % Reduction in amount of water absorbed: 12%

## CCCCCC[C@@H](O)C/C=C\CCCCCCCC(=O)O [Ricinoleic acid]
  % reduction in water absorbed: 8.8%

## Nc1ccc(O)cc1 [4-Aminophenol]
  % Reduction in amount of water absorbed: 10%

## Nc1cccc(O)c1 [3-Aminophenol]
  % Reduction in amount of water absorbed: 14%

## O=C(O)c1cc(O)cc(O)c1 [3,5-Dihydroxybenzoic acid]
  % Reduction in amount of water absorbed: 15%

From patent publication US10406094B2, “Composition for fast dry of hair” (The Procter & Gamble Company, priority 2016, dated 2019)
